Data as given in patent US7169761B2, “Azulene derivatives and salts thereof” (Astellas Pharma Inc., priority 2002, dated 2007).

Legend:
human SGLT2 = molecular target: T1, human SGLT2 (Homo sapiens, UniProt P31639); assay: Inhibition of human Na+-glucose cotransporter (human SGLT2) activity: methyl-α-D-glucopyranoside intake in CHO cells stably expressing human SGLT2; assay type: cell-based; settings: inhibition of methyl-α-D-(U-14C)glucopyranoside intake, CHO cells stably expressing human SGLT2, 37° C., two hours
T1 construct: expressed in transfected cells; host or cells: CHO-K1
T1 sequence (P31639 1-672): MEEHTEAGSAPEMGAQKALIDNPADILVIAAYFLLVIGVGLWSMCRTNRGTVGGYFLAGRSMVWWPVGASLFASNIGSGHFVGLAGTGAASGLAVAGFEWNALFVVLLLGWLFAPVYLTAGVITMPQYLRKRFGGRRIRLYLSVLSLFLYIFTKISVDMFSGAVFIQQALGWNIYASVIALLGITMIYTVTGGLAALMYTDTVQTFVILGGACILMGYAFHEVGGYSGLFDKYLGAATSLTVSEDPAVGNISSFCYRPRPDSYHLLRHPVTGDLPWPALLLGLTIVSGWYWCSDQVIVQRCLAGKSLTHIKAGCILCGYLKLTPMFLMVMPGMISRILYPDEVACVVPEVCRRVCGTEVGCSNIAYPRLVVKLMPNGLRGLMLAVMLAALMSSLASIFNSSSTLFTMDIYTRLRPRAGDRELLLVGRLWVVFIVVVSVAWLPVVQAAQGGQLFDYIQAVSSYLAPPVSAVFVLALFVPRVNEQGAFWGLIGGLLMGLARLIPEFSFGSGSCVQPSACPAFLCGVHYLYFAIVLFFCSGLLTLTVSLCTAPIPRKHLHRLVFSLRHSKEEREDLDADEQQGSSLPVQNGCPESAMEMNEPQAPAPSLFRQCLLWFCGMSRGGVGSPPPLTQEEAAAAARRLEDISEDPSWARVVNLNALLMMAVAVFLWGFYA
Excerpt: [Inhibition of Human Na^+-Glucose Cotransporter (Human SGLT2) Activity]
(1) Preparation of Human SGLT 2 Expression Vector
First, single-strand cDNA was reversely transcripted from total RNA originating from the human kidney (manufactured by BD Biosciences Clontech) using a Superscript II (manufactured by Invitrogen Corporation) and a random hexamer. Second, using the cDNA as a template, a DNA fragment encoding a human SGLT2 (Wells, R. G. et al., Am. J. Physiol., 1992, 263(3) F459) was amplified by the PCR reaction using Pyrobest DNA polymerase (manufactured by Takara Bio Inc.). That is, a Hind III site and an EcoRI site were inserted into the 5′ side and the 3′ side of the DNA fragment, respectively by using primers.
The amplified fragment was cloned into a pCR2.1-Topo vector using a Topo TA Cloning Kit (manufactured by Invitrogen Corporation) and the cloned vector was transfected into a competent cell of Escherichia coli JM109. Ampicillin-resistant clones were cultured in a LB medium containing ampicillin (100 mg/l). A plasmid was purified from the cultured Escherichia coli using the method of Hanahan (see Maniatis et al., “Molecular Cloning”). A DNA fragment for encoding a human SGLT2 was obtained by the Hind III/EcoRI digestion of the plasmid and ligated and cloned to the same site of the expression vector pcDNA 3.1 (manufactured by Invitrogen Corporation) using a DNA ligase (manufactured by Roche Diagnostics). The ligated clone was transfected into a competent cell of Escherichia coli JM109 in the same manner as described above and cultured in a LB medium containing ampicillin, and a human SGLT2 expression vector was obtained using the method of Hanahan.
(2) Preparation of Human SGLT2 Expressed Cells
The human SGLT2 expression vector was transfected into a CHO-K1 cell using Lipofectamine2000 (manufactured by Invitrogen Corporation). The cell was cultured in a Ham's F12 medium (manufactured by Nissui Pharmaceutical Co., Ltd.) containing penicillin (50 IU/ml, manufactured by Dainippon Pharmaceutical Co., Ltd.), streptomycin (50 μg/ml, manufactured by Dainippon Pharmaceutical Co., Ltd.), Geneticin (40 μg/ml, manufactured by Invitrogen Corporation), and 10% fetal bovine serum in the presence of 5% CO2 at 37° C. for two weeks, and Geneticin-resistant clones were obtained.
(3) Inhibition of Methyl-α-D-Glucopyranoside Intake
After removing the medium of a CHO cell which stably expresses the human SGLT2, a pretreatment buffer solution (buffer solution of pH 7.4 containing choline chloride (140 mM), potassium chloride (2 mM), calcium chloride (1 mM), magnesium chloride (1 mM), 2-[4-(2-hydroxyethyl)1-piperazinyl]ethanesulfonic acid (10 mM), and tris(hydroxymethyl) aminomethane (5 mM)) was added in the amount of 100 μl per well, and incubated at 37° C. for 20 minutes.
11 μl of methyl-α-D-(U-14C) glucopyranoside (manufactured by Amersham Pharmacia Biotech) was mixed with 1,000 μl of a buffer solution for intake containing a test compound (buffer solution of pH 7.4 containing sodium chloride (140 mM), potassium chloride (2 mM), calcium chloride (1 mM), magnesium chloride (1 mM), methyl-α-D-glucopyranoside (50 μM), 2-[4-(2-hydroxyethyl)1-piperazinyl]ethanesulfonic acid (10 mM), and tris(hydroxymethyl)aminomethane (5 mM)) to prepare a buffer solution for intake. A buffer solution for intake without a test compound was prepared for a control group. A buffer solution for basal intake without a test compound containing coline chloride (140 mM) instead of sodium chloride for measuring the basal intake was prepared as well.
After removing the pretreatment buffer solution, the buffer solution for intake was added (25 μl per well) and incubated at 37° C. for two hours. […]

[1] = tested on: blood glucose of KK-A^y mice; assay: Hypoglycemic activity confirmation test in fed KK-Ay mice; assay type: in vivo, mouse; settings: rate of decrease in blood glucose AUC 0–8 hours vs control group; fed male KK-A^y mice, oral, 3 mg/10 ml suspension at 10 ml/kg
Method: [Hypoglycemic Activity Confirmation Test]
Fed KK-A^y mice (CLEA Japan, Inc., male) were used. The test compound was suspended in 0.5% methylcellulose solution to a concentration of 3 mg/10 ml. The weight of each mouse was measured. The test compound suspension was orally administered forcibly to the mice at a dose of 10 ml/kg. Only 0.5% methylcellulose solution was administered to the mice of a control group. Each group consisted of six mice. Blood was collected from the tail vein immediately before administering the compound and one, two, four, and eight hours after administering the compound. The blood glucose value was measured using a glucose CII Test Wako (manufactured by Wako Pure Chemical Industries, Ltd.). The intensity of hypoglycemic activity was determined by calculating the area under the blood glucose value-time curve (AUC) using a trapezoidal method from the glucose value of 0–8 hours after administering the compound and calculating the rate (%) of the decrease in the AUC of the drug-administered group from that of the control group.

Structure (SMILES)	IC50 (human SGLT2)	Hypoglycemic activity [1]
Cc1ccc(Cc2cc3cccccc-3c2)cc1[C@@H]1O[C@H](CO)[C@@H](O)[C@H](O)[C@H]1O [Example 11]	29 nM	
COc1ccc(Cc2cc3cccccc-3c2)cc1[C@@H]1O[C@H](CO)[C@@H](O)[C@H](O)[C@H]1O [Example 28]	16 nM	46%
OC[C@H]1O[C@@H](c2cc(Cc3cc4cccccc-4c3)ccc2O)[C@H](O)[C@@H](O)[C@@H]1O [Example 75, (1S)-1,5-anhydro-1-[5-(azulen-2-ylmethyl)-2-hydroxyphenyl]-D-glucitol]	8.9 nM	
OC[C@H]1O[C@@H](c2cccc(Cc3cc4cccccc-4c3)c2)[C@H](O)[C@@H](O)[C@@H]1O [Example 25]	22 nM	
OC[C@H]1O[C@@H](c2cccc(Cc3ccc4cccc-4cc3)c2)[C@H](O)[C@@H](O)[C@@H]1O [Example 21]	99 nM	
COc1cc(OC)c([C@@H]2O[C@H](CO)[C@@H](O)[C@H](O)[C@H]2O)cc1Cc1cc2cccccc-2c1 [Example 60, (1S)-1,5-anhydro-1-[5-(azulen-2-ylmethyl)-2,4-dimethoxyphenyl]-D-glucitol]	5.7 nM	45%
CCOc1ccc(Cc2cc3cccccc-3c2)cc1[C@@H]1O[C@H](CO)[C@@H](O)[C@H](O)[C@H]1O [Example 7, (1S)-1,5-anhydro-1-[5-(azulen-2-ylmethyl)-2-ethoxyphenyl]-D-glucitol]	16 nM	
